# Assay results from the NIST ThermoML archive (doi:10.1016/j.jct.2011.08.016).
# ± gives the expanded uncertainty stated by the source.
# Assay: xn = mol fraction of the nth substance listed
# Details: Liquid, Vibrating tube method
smiles,measurement,setting,value
CCCCCCCCCC [decane] + CCCCCCCC,mass density,"333.12 K, 16000 kPa, x2 = 0.2801",707.59 ± 0.49 kg/m3
same,mass density,"333.12 K, 17000 kPa, x2 = 0.0616",713.28 ± 0.49 kg/m3
same,mass density,"333.12 K, 17000 kPa, x2 = 0.2801",708.43 ± 0.5 kg/m3
same,mass density,"333.12 K, 18000 kPa, x2 = 0.0616",714.06 ± 0.5 kg/m3
same,mass density,"333.12 K, 18000 kPa, x2 = 0.2801",709.25 ± 0.5 kg/m3
same,mass density,"333.12 K, 19000 kPa, x2 = 0.0616",714.88 ± 0.5 kg/m3
same,mass density,"333.12 K, 19000 kPa, x2 = 0.2801",710.06 ± 0.51 kg/m3
same,mass density,"333.12 K, 20000 kPa, x2 = 0.0616",715.65 ± 0.51 kg/m3
same,mass density,"333.12 K, 20000 kPa, x2 = 0.2801",710.83 ± 0.52 kg/m3
same,mass density,"333.12 K, 21000 kPa, x2 = 0.0616",716.44 ± 0.52 kg/m3
same,mass density,"333.12 K, 21000 kPa, x2 = 0.2801",711.62 ± 0.52 kg/m3
same,mass density,"333.12 K, 22000 kPa, x2 = 0.0616",717.15 ± 0.52 kg/m3
same,mass density,"333.12 K, 22000 kPa, x2 = 0.2801",712.4 ± 0.53 kg/m3
same,mass density,"333.12 K, 23000 kPa, x2 = 0.0616",717.89 ± 0.53 kg/m3
same,mass density,"333.12 K, 23000 kPa, x2 = 0.2801",713.12 ± 0.54 kg/m3
same,mass density,"333.12 K, 24000 kPa, x2 = 0.0616",718.59 ± 0.54 kg/m3
same,mass density,"333.12 K, 24000 kPa, x2 = 0.2801",713.84 ± 0.54 kg/m3
same,mass density,"333.12 K, 25000 kPa, x2 = 0.0616",719.3 ± 0.54 kg/m3
same,mass density,"333.12 K, 25000 kPa, x2 = 0.2801",714.53 ± 0.55 kg/m3
same,mass density,"333.13 K, 1000 kPa, x2 = 0.5314",686.94 ± 0.42 kg/m3
same,mass density,"333.13 K, 1000 kPa, x2 = 0.9623",672.68 ± 0.42 kg/m3
same,mass density,"333.13 K, 2000 kPa, x2 = 0.5314",687.94 ± 0.42 kg/m3
same,mass density,"333.13 K, 2000 kPa, x2 = 0.9623",673.73 ± 0.43 kg/m3
same,mass density,"333.13 K, 3000 kPa, x2 = 0.5314",688.95 ± 0.43 kg/m3
same,mass density,"333.13 K, 3000 kPa, x2 = 0.9623",674.77 ± 0.43 kg/m3
same,mass density,"333.13 K, 4000 kPa, x2 = 0.5314",689.94 ± 0.43 kg/m3
same,mass density,"333.13 K, 4000 kPa, x2 = 0.9623",675.8 ± 0.44 kg/m3
same,mass density,"333.13 K, 5000 kPa, x2 = 0.5314",690.92 ± 0.44 kg/m3
same,mass density,"333.13 K, 5000 kPa, x2 = 0.9623",676.82 ± 0.44 kg/m3
same,mass density,"333.13 K, 6000 kPa, x2 = 0.5314",691.92 ± 0.44 kg/m3
same,mass density,"333.13 K, 6000 kPa, x2 = 0.9623",677.85 ± 0.45 kg/m3
same,mass density,"333.13 K, 7000 kPa, x2 = 0.5314",692.89 ± 0.45 kg/m3
same,mass density,"333.13 K, 7000 kPa, x2 = 0.9623",678.88 ± 0.45 kg/m3
same,mass density,"333.13 K, 8000 kPa, x2 = 0.5314",693.87 ± 0.45 kg/m3
same,mass density,"333.13 K, 8000 kPa, x2 = 0.9623",679.95 ± 0.46 kg/m3
same,mass density,"333.13 K, 9000 kPa, x2 = 0.5314",694.82 ± 0.46 kg/m3
same,mass density,"333.13 K, 9000 kPa, x2 = 0.9623",680.98 ± 0.46 kg/m3
same,mass density,"333.13 K, 10000 kPa, x2 = 0.5314",695.75 ± 0.46 kg/m3
same,mass density,"333.13 K, 10000 kPa, x2 = 0.9623",681.98 ± 0.47 kg/m3
same,mass density,"333.13 K, 10990 kPa, x2 = 0.5314",696.68 ± 0.47 kg/m3
same,mass density,"333.13 K, 10990 kPa, x2 = 0.9623",682.99 ± 0.48 kg/m3
same,mass density,"333.13 K, 12000 kPa, x2 = 0.5314",697.6 ± 0.47 kg/m3
same,mass density,"333.13 K, 12000 kPa, x2 = 0.9623",683.98 ± 0.48 kg/m3
same,mass density,"333.13 K, 13000 kPa, x2 = 0.5314",698.5 ± 0.48 kg/m3
same,mass density,"333.13 K, 13000 kPa, x2 = 0.9623",684.93 ± 0.49 kg/m3
same,mass density,"333.13 K, 14000 kPa, x2 = 0.5314",699.4 ± 0.49 kg/m3
same,mass density,"333.13 K, 14000 kPa, x2 = 0.9623",685.89 ± 0.5 kg/m3
same,mass density,"333.13 K, 15000 kPa, x2 = 0.5314",700.28 ± 0.49 kg/m3
same,mass density,"333.13 K, 15000 kPa, x2 = 0.9623",686.87 ± 0.5 kg/m3
same,mass density,"333.13 K, 16000 kPa, x2 = 0.5314",701.15 ± 0.5 kg/m3
same,mass density,"333.13 K, 16000 kPa, x2 = 0.9623",687.76 ± 0.51 kg/m3
same,mass density,"333.13 K, 17000 kPa, x2 = 0.5314",702 ± 0.5 kg/m3
same,mass density,"333.13 K, 17000 kPa, x2 = 0.9623",688.67 ± 0.52 kg/m3
same,mass density,"333.13 K, 18000 kPa, x2 = 0.5314",702.88 ± 0.51 kg/m3
same,mass density,"333.13 K, 18000 kPa, x2 = 0.9623",689.57 ± 0.52 kg/m3
same,mass density,"333.13 K, 19000 kPa, x2 = 0.5314",703.68 ± 0.52 kg/m3
same,mass density,"333.13 K, 19000 kPa, x2 = 0.9623",690.49 ± 0.53 kg/m3
same,mass density,"333.13 K, 20000 kPa, x2 = 0.5314",704.48 ± 0.52 kg/m3
same,mass density,"333.13 K, 20000 kPa, x2 = 0.9623",691.35 ± 0.54 kg/m3
same,mass density,"333.13 K, 21000 kPa, x2 = 0.5314",705.27 ± 0.53 kg/m3
same,mass density,"333.13 K, 21000 kPa, x2 = 0.9623",692.18 ± 0.54 kg/m3
same,mass density,"333.13 K, 22000 kPa, x2 = 0.5314",706.05 ± 0.54 kg/m3
same,mass density,"333.13 K, 22000 kPa, x2 = 0.9623",693 ± 0.55 kg/m3
same,mass density,"333.13 K, 23000 kPa, x2 = 0.5314",706.81 ± 0.54 kg/m3
same,mass density,"333.13 K, 23000 kPa, x2 = 0.9623",693.78 ± 0.56 kg/m3
same,mass density,"333.13 K, 24000 kPa, x2 = 0.5314",707.53 ± 0.55 kg/m3
same,mass density,"333.13 K, 24000 kPa, x2 = 0.9623",694.55 ± 0.57 kg/m3
same,mass density,"333.13 K, 25000 kPa, x2 = 0.5314",708.26 ± 0.56 kg/m3
same,mass density,"333.13 K, 25000 kPa, x2 = 0.9623",695.28 ± 0.57 kg/m3
same,mass density,"333.14 K, 1000 kPa, x2 = 0.7736",679.32 ± 0.42 kg/m3
same,mass density,"333.14 K, 2000 kPa, x2 = 0.7736",680.38 ± 0.42 kg/m3
same,mass density,"333.14 K, 3000 kPa, x2 = 0.7736",681.42 ± 0.43 kg/m3
same,mass density,"333.14 K, 4000 kPa, x2 = 0.7736",682.44 ± 0.43 kg/m3
same,mass density,"333.14 K, 5000 kPa, x2 = 0.7736",683.46 ± 0.44 kg/m3
same,mass density,"333.14 K, 6000 kPa, x2 = 0.7736",684.5 ± 0.44 kg/m3
same,mass density,"333.14 K, 7000 kPa, x2 = 0.7736",685.49 ± 0.45 kg/m3
same,mass density,"333.14 K, 8000 kPa, x2 = 0.7736",686.5 ± 0.46 kg/m3
same,mass density,"333.14 K, 9000 kPa, x2 = 0.7736",687.47 ± 0.46 kg/m3
same,mass density,"333.14 K, 10000 kPa, x2 = 0.7736",688.42 ± 0.47 kg/m3
same,mass density,"333.14 K, 10990 kPa, x2 = 0.7736",689.42 ± 0.47 kg/m3
same,mass density,"333.14 K, 12000 kPa, x2 = 0.7736",690.37 ± 0.48 kg/m3
same,mass density,"333.14 K, 13000 kPa, x2 = 0.7736",691.27 ± 0.48 kg/m3
same,mass density,"333.14 K, 14000 kPa, x2 = 0.7736",692.21 ± 0.49 kg/m3
same,mass density,"333.14 K, 15000 kPa, x2 = 0.7736",693.1 ± 0.5 kg/m3
same,mass density,"333.14 K, 16000 kPa, x2 = 0.7736",694.02 ± 0.5 kg/m3
same,mass density,"333.14 K, 17000 kPa, x2 = 0.7736",694.9 ± 0.51 kg/m3
same,mass density,"333.14 K, 18000 kPa, x2 = 0.7736",695.77 ± 0.52 kg/m3
same,mass density,"333.14 K, 19000 kPa, x2 = 0.7736",696.62 ± 0.52 kg/m3
same,mass density,"333.14 K, 20000 kPa, x2 = 0.7736",697.46 ± 0.53 kg/m3
same,mass density,"333.14 K, 21000 kPa, x2 = 0.7736",698.28 ± 0.54 kg/m3
same,mass density,"333.14 K, 22000 kPa, x2 = 0.7736",699.09 ± 0.54 kg/m3
same,mass density,"333.14 K, 23000 kPa, x2 = 0.7736",699.86 ± 0.55 kg/m3
same,mass density,"333.14 K, 24000 kPa, x2 = 0.7736",700.61 ± 0.56 kg/m3
same,mass density,"333.14 K, 25000 kPa, x2 = 0.7736",701.34 ± 0.57 kg/m3
